Earlier results on 3 compounds are cited in patent publication US20170056463A1, “COMPOSITIONS AND METHODS FOR TREATING DIABETES” (priority 2015, published 2017).

The subject of series [1] is phosphotyrosine phosphatase.
The subject of series [2] is HSV (herpes simplex virus).
Experiment in series [3]: not given
This is another data set of the same source.

For the compound `[Cr]` [Chromium, chromium], the phosphotyrosine phosphatase activity entry in series [1] is given as “inhibit”.

In the case of `[Zn]` [zinc], where the note is “2 hour post-prandial measurements in people treated with zinc”, the blood glucose levels entry was “reduced”. Further, under “after zinc supplementation”, the “systolic and diastolic blood pressures” value was “significant reduction”.

On to `COc1ccc2cc3[n+](cc2c1OC)CCc1cc2c(cc1-3)OCO2` [berberine], for which the “growth of HSV” value in series [2] was “inhibits growth”. For the same compound, the “levels of fasting blood sugar” value in series [3] (after oral supplementation with the herbal extract of berberine, patients with pre-diabetes and diabetes) is given as “normalize”. Further, the “lowering of blood glucose” value in series [3] (doses of about 1,000 mg daily, compared with metformin) was “as effectively as metformin”. Further, in series [3] (previous investigations), the cholesterol ratios entry is “improved” and the “hemoglobin A1c (HbA1c)” value was “significant reduction”.
